Values after ≈ are worked out from the molar mass of the structure shown.
What was measured:
Type in all cases: cell-based
[1] = system: COLO205; test: Sulforhodamine B (SRB) assay; settings: Homo sapiens, COLO 205; COLO205, Colon; 48 hours; read-out: GI50 (SRB in vitro cytotoxicity)
Description: (§1) Growth inhibitory effect of Compound A on the cells listed below was measured by the sulforhodamine B assay. SW480 cells in 100 μl media were plated in each well of 96-well plate and allowed to attach for 24 hours. Compound A was added to the wells to produce the desired final concentrations, and the plates were incubated at 37° C. for 48 hours. The cells were then fixed by gentle addition of 100 μl of cold (4° C.) 10% trichloroacetic acid to each well, followed by incubation at 4° C. for 1 hour. Plates were washed with deionized water five times and allowed to air dry. The cells were then stained by addition of 100 μl SRB solution (0.4% SRB(w/v) in 1% acetic acid (v/v)) to wells for 15 min. After staining, the plates were quickly washed five times with 1% acetic acid to remove any unbound dye, and allowed to air dry. Bound dye was solubilized with 10 mmol/L Tris base (pH 10.5) prior to reading the plates. The optical density (OD) was read on a plate reader at a wavelength of 515 nm with Molecular Device. Inhibition of growth was expressed as relative viability (% of control) and GI50 was calculated from concentration-response curves after log/probit transformation.

[2] = system: LOVO; test: Sulforhodamine B (SRB) assay; settings: Homo sapiens, Colon, 48 hours, read-out: GI50 (SRB in vitro cytotoxicity)
Description: as §1

[3] = system: SW620; test: Sulforhodamine B (SRB) assay; settings: Homo sapiens, SW-620; SW620, Colon; 48 hours; read-out: GI50 (SRB in vitro cytotoxicity)
Description: as §1

[4] = system: HT1080; test: Sulforhodamine B (SRB) assay; settings: Homo sapiens, HT-1080; HT1080, listed under Prostate; 48 hours; read-out: GI50 (SRB in vitro cytotoxicity)
Description: as §1

[5] = system: LOX-IMVI; test: Sulforhodamine B (SRB) assay; settings: Homo sapiens, Melanoma, 48 hours, read-out: GI50 (SRB in vitro cytotoxicity)
Description: as §1

[6] = system: A375; test: Sulforhodamine B (SRB) assay; settings: Homo sapiens, A-375; A375, Melanoma; 48 hours; read-out: GI50 (SRB in vitro cytotoxicity)
Description: as §1

[7] = Sulforhodamine B (SRB) assay; settings: human, 293 cells (renal), 293, Renal, read-out: GI50 (SRB in vitro cytotoxicity)
Description: as §1

[8] = system: HMV-I; test: Sulforhodamine B (SRB) assay; settings: Melanoma, 48 hours, read-out: GI50 (SRB in vitro cytotoxicity)
Description: as §1

[9] = system: KM12; test: Sulforhodamine B (SRB) assay; settings: Homo sapiens; KM12, Colon; 48 hours; read-out: GI50 (SRB in vitro cytotoxicity)
Description: as §1

[10] = system: T84; test: Sulforhodamine B (SRB) assay; settings: Homo sapiens; T84, Colon; 48 hours; read-out: GI50 (SRB in vitro cytotoxicity)
Description: as §1

[11] = system: HCT116; test: Sulforhodamine B (SRB) assay; settings: Homo sapiens, HCT-116; HCT116, Colon; 48 hours; read-out: GI50 (SRB in vitro cytotoxicity)
Description: as §1

[12] = system: A431; test: Sulforhodamine B (SRB) assay; settings: Homo sapiens, A-431; A431, Melanoma; 48 hours; read-out: GI50 (SRB in vitro cytotoxicity)
Description: as §1

[13] = system: HCT15; test: Sulforhodamine B (SRB) assay; settings: Homo sapiens, HCT-15; HCT15, Colon; 48 hours; read-out: GI50 (SRB in vitro cytotoxicity)
Description: as §1

[14] = system: K562/VIN; test: Sulforhodamine B (SRB) assay; settings: Homo sapiens, Leukemia, 48 hours, read-out: GI50 (SRB in vitro cytotoxicity)
Description: as §1

[15] = system: HT29; test: Sulforhodamine B (SRB) assay; settings: Homo sapiens, HT-29; HT29, Colon; 48 hours; read-out: GI50 (SRB in vitro cytotoxicity)
Description: as §1

[16] = system: MCF7/ADR; test: Sulforhodamine B (SRB) assay; settings: Homo sapiens, NCI/ADR-RES, Breast, 48 hours, read-out: GI50 (SRB in vitro cytotoxicity)
Description: as §1

[17] = system: PC3; test: Sulforhodamine B (SRB) assay; settings: Homo sapiens, PC-3; PC3, Prostate; 48 hours; read-out: GI50 (SRB in vitro cytotoxicity)
Description: as §1

[18] = system: ACHN; test: Sulforhodamine B (SRB) assay; settings: Homo sapiens, Renal, 48 hours, read-out: GI50 (SRB in vitro cytotoxicity)
Description: as §1

[19] = system: M14; test: Sulforhodamine B (SRB) assay; settings: Homo sapiens; M14, Melanoma; 48 hours; read-out: GI50 (SRB in vitro cytotoxicity)
Description: as §1

[20] = system: A549; test: Sulforhodamine B (SRB) assay; settings: Homo sapiens; A549, Lung; 48 hours; read-out: GI50 (SRB in vitro cytotoxicity)
Description: as §1

[21] = system: RPM17951; test: Sulforhodamine B (SRB) assay; settings: RPM17951, Melanoma; 48 hours; read-out: GI50 (SRB in vitro cytotoxicity)
Description: as §1

[22] = system: K562; test: Sulforhodamine B (SRB) assay; settings: Homo sapiens; K562, Leukemia; 48 hours; read-out: GI50 (SRB in vitro cytotoxicity)
Description: as §1

[23] = system: SW480-CWP; test: Sulforhodamine B (SRB) assay; settings: Colon, 48 hours, read-out: GI50 (SRB in vitro cytotoxicity)
Description: as §1

[24] = system: A253; test: Sulforhodamine B (SRB) assay; settings: Homo sapiens; A253, Melanoma; 48 hours; read-out: GI50 (SRB in vitro cytotoxicity)
Description: as §1

[25] = system: K562/ADR; test: Sulforhodamine B (SRB) assay; settings: Homo sapiens, Leukemia, 48 hours, read-out: GI50 (SRB in vitro cytotoxicity)
Description: as §1

[26] = system: SW480-Kribb; test: Sulforhodamine B (SRB) assay; settings: Colon, 48 hours, read-out: GI50 (SRB in vitro cytotoxicity)
Description: as §1

[27] = system: SK-MEL-5; test: Sulforhodamine B (SRB) assay; settings: Homo sapiens; SK-MEL-5, Melanoma; 48 hours; read-out: GI50 (SRB in vitro cytotoxicity)
Description: as §1

[28] = system: SK-MEL-28; test: Sulforhodamine B (SRB) assay; settings: Homo sapiens; SK-MEL-28, Melanoma; 48 hours; read-out: GI50 (SRB in vitro cytotoxicity)
Description: as §1

Compound `O=c1[nH]cc(F)c(=O)[nH]1` [Compound 5-FU, 5-fluorouracil] has a GI50 [1] of 1.13 mg/L (≈ 8.69 µM), a GI50 [2] of 1.03 mg/L (≈ 7.91 µM) and a GI50 [3] of 5.57 mg/L (≈ 42.8 µM). For the same compound, the GI50 [4] was 0.798 mg/L (≈ 6.13 µM), the GI50 [5] was over 10 mg/L and the GI50 [6] was 1.46 mg/L (≈ 11.3 µM). The GI50 at 48 h [7] was 2.02 mg/L (≈ 15.5 µM), the GI50 [8] was 2.11 mg/L (≈ 16.2 µM) and the GI50 [9] was 2.73 mg/L (≈ 21 µM). The GI50 [10] was 1.82 mg/L (≈ 14 µM), the GI50 [11] was 1.04 mg/L (≈ 7.99 µM) and the GI50 [12] was 0.404 mg/L (≈ 3.11 µM). The GI50 [13] was 1.18 mg/L (≈ 9.06 µM), the GI50 [14] was 7.07 mg/L (≈ 54.4 µM) and the GI50 [15] was 5.33 mg/L (≈ 41 µM). For the same compound, the GI50 [16] was over 10 mg/L, the GI50 [17] was over 10 mg/L and the GI50 [18] was 5.06 mg/L (≈ 38.9 µM). For the same compound, the GI50 [19] was 1.23 mg/L (≈ 9.42 µM), the GI50 [20] was 1.01 mg/L (≈ 7.74 µM) and the GI50 [21] was 0.92 mg/L (≈ 7.07 µM). For the same compound, the GI50 [22] was 6.13 mg/L (≈ 47.1 µM), the GI50 [23] was over 10 mg/L and the GI50 [24] was 2.93 mg/L (≈ 22.5 µM). For the same compound, the GI50 [25] was over 10 mg/L, the GI50 [26] was over 10 mg/L and the GI50 [27] was 2.43 mg/L (≈ 18.7 µM). For the same compound, the GI50 [28] was over 10 mg/L.

From patent US7671054B1, “Reverse-turn mimetics and method relating thereto” (Choongwae Pharma Corporation, priority 2001, dated 2010)
